The source of these data is ChEMBL document CHEMBL1201862, “PubChem BioAssay data set” (2004).

Among the test systems are M14; MDA-MB-435; HOP-62; OVCAR-4; PC-3; UACC-62; UO-31; SK-MEL-5; MDA-N; ACHN; OVCAR-8; HCT-116; SK-MEL-28; U-251; OVCAR-3; SNB-19; 786-0; NCI-H226; NCI-H460.
Holding throughout (experiment): DTP human tumour cell line panel, 48 h

Values joined by “and” are separate entries in the source; they are usually repeats but may differ in a detail not shown here. Identical values can stand only once.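 Tested at 5 concentrations; 48 h exposure; 96-well plates; endpoints linearly interpolated, else capped at highest concentration. GI50 is the concentration that inhibits growth by half.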 Active and inactive are the calls of the source. Cut-off read from the data, not from the text of the source: active = GI50 up to about 1.1 µM and inactive = higher. Where only a bound is given, the exact number is not on record here.

Take `CC(NC(=O)c1ccccc1)(C(=O)O)C(=O)O`: the GI50 in the assay with M14, in the assay on MDA-MB-435, in the assay on HOP-62, with OVCAR-4, with PC-3 and with UACC-62 was > 100 µM (inactive) throughout. The GI50 with UO-31, with SK-MEL-5, in the assay on MDA-N, in the assay with ACHN, with OVCAR-8 and with HCT-116 was > 100 µM (inactive) throughout. For the same compound, the GI50 in the assay with SK-MEL-28, in the assay on U-251, in the assay on OVCAR-3, with SNB-19, in the assay with 786-0 and in the assay with NCI-H226 was > 100 µM (inactive) each time. For the same compound, the GI50 in the assay with NCI-H460 was > 100 µM (inactive).
Take `CSc1nc(C#N)c(/N=C\N(C)C)n1C`: the GI50 in the assay with M14, in the assay on MDA-MB-435, in the assay with HOP-62, in the assay on OVCAR-4, in the assay with PC-3 and in the assay on UACC-62 was > 100 µM (inactive) throughout. The GI50 in the assay with UO-31, with SK-MEL-5, in the assay with MDA-N, in the assay with ACHN, with OVCAR-8 and in the assay on HCT-116 was > 100 µM (inactive) each time. The GI50 in the assay with SK-MEL-28, with U-251, in the assay on OVCAR-3, in the assay on SNB-19, in the assay with 786-0 and with NCI-H226 was > 100 µM (inactive) each time. Also, the GI50 in the assay on NCI-H460 was > 100 µM (inactive).
For the compound `CN1CCN(c2ccc([N+](=O)[O-])c3no[n+]([O-])c23)CC1`, the GI50 in the assay with M14 was 0.153 µM (active); with MDA-MB-435 it was 1.05 µM (active); with HOP-62 it was 0.0607 µM (active); in the assay with OVCAR-4, 0.689 µM (active); with PC-3 it was 0.557 µM (active); in the assay on UACC-62 it was 0.769 µM (active). The GI50 was 0.239 µM (active) in the assay with UO-31; 0.743 µM (active) in the assay with SK-MEL-5; 1.36 µM (inactive) in the assay with MDA-N; 0.0395 µM (active) with ACHN; 0.24 µM (active) in the assay with OVCAR-8; 0.12 µM (active) in the assay with HCT-116. The GI50 was 1.98 µM (inactive) in the assay with SK-MEL-28; 0.097 µM (active) with U-251; 0.396 µM (active) with OVCAR-3; 0.914 µM (active) with SNB-19; 0.0452 µM (active) in the assay with 786-0; 0.604 µM (active) in the assay on NCI-H226. Besides, the GI50 in the assay with NCI-H460 was 0.0334 µM (active).
Turning to `CSC1=N/C(=C\c2cccs2)C(=O)N1CN1CCOCC1`, the GI50 is 61.7 µM (inactive) with M14; > 100 µM (inactive) in the assay with MDA-MB-435; 95.7 µM (inactive) with HOP-62; 30.6 µM (inactive) in the assay on OVCAR-4; 50.8 µM (inactive) in the assay on PC-3; 42.4 µM (inactive) with UACC-62. Further, the GI50 is 39.9 µM (inactive) with UO-31; 41.1 µM (inactive) with SK-MEL-5; 59 µM (inactive) in the assay with MDA-N; 37.2 µM (inactive) with ACHN; 28.8 µM (inactive) with OVCAR-8; 31.3 µM (inactive) in the assay on HCT-116. Moreover, the GI50 in the assay on SK-MEL-28 was > 100 µM (inactive); in the assay on U-251 it was 85.5 µM (inactive); in the assay on OVCAR-3, > 100 µM (inactive); with SNB-19, 45.6 µM (inactive); in the assay with 786-0 it was 44.5 µM (inactive); with NCI-H226, 31.1 µM (inactive).
For the compound `N=C(N)N/N=C/c1c(-c2cc([N+](=O)[O-])c(Cl)cc2Cl)nc2sccn12`, the GI50 in the assay with M14 was 1.66 µM (inactive); in the assay on MDA-MB-435, 332 nM (active) and 1.7 µM (inactive); in the assay with HOP-62 it was 1.89 µM (inactive); with OVCAR-4 it was 1.66 µM (inactive); in the assay on PC-3, 1.45 µM (inactive) and 2.01 µM (inactive); in the assay on UACC-62 it was 1.56 µM (inactive) and 1.94 µM (inactive). For the same compound, the GI50 in the assay on UO-31 is 2.05 µM (inactive) and 1.29 µM (inactive); with SK-MEL-5, 1.58 µM (inactive) and 1.35 µM (inactive); in the assay with MDA-N, 1.48 µM (inactive); with ACHN it was 527 nM (active) and 1.67 µM (inactive); in the assay with OVCAR-8, 1.98 µM (inactive) and 2 µM (inactive); in the assay on SK-MEL-28, 1.38 µM (inactive) and 1.47 µM (inactive). In addition, the GI50 is 1.05 µM (active) and 272 nM (active) in the assay on U-251; 1.86 µM (inactive) in the assay with OVCAR-3; 1.67 µM (inactive) with 786-0; 2.04 µM (inactive) with NCI-H226; 1.86 µM (inactive) and 1.73 µM (inactive) in the assay with NCI-H460.
`COc1ccc2c(Cl)cc(NC(=S)Nc3ccccc3)nc2c1`: the GI50 with M14 is 18.3 µM (inactive); with MDA-MB-435, 17.7 µM (inactive); in the assay on HOP-62, 35.5 µM (inactive); with OVCAR-4, 32.4 µM (inactive); in the assay with PC-3, 28.6 µM (inactive); in the assay with UACC-62, 17.2 µM (inactive). Also, the GI50 is 33.6 µM (inactive) with SK-MEL-5; 15.4 µM (inactive) in the assay with MDA-N; 38.5 µM (inactive) with ACHN; 19.4 µM (inactive) in the assay on OVCAR-8; 20.2 µM (inactive) with HCT-116; 33.6 µM (inactive) in the assay on SK-MEL-28. The GI50 with U-251 is 20 µM (inactive); in the assay on OVCAR-3 it was 31.8 µM (inactive); in the assay with SNB-19, 20.6 µM (inactive); with 786-0, 22.3 µM (inactive); in the assay with NCI-H226, 55.5 µM (inactive); with NCI-H460, 32.3 µM (inactive).
On to `CCOP(=O)(OCC)C1CC(O)C(=O)N1` (stereo unspecified), for which the GI50 in the assay with M14, in the assay on MDA-MB-435, with HOP-62, in the assay with OVCAR-4, in the assay with PC-3 and in the assay on UACC-62 was > 100 µM (inactive) in each case. Besides, the GI50 in the assay on UO-31, with SK-MEL-5, with MDA-N, in the assay on ACHN, in the assay on OVCAR-8 and in the assay with HCT-116 was > 100 µM (inactive) each time. Further, the GI50 in the assay on SK-MEL-28, in the assay with U-251, in the assay with OVCAR-3, with SNB-19, in the assay with 786-0 and with NCI-H226 was > 100 µM (inactive) each time.
Regarding `COP(=O)(OC)[C@@](O)(c1ccccc1)[C@@H](O)[C@H](O)c1ccccc1`, the GI50 in the assay on M14, in the assay on MDA-MB-435, in the assay on OVCAR-4, in the assay with PC-3, with UACC-62 and with UO-31 was > 100 µM (inactive) in each case. For the same compound, the GI50 was > 100 µM (inactive) in the assay on SK-MEL-5; > 100 µM (inactive) in the assay on MDA-N; > 100 µM (inactive) in the assay on ACHN; > 100 µM (inactive) in the assay on OVCAR-8; 36 µM (inactive) in the assay with HCT-116; > 100 µM (inactive) in the assay with SK-MEL-28. Moreover, the GI50 in the assay with U-251 is > 100 µM (inactive); with OVCAR-3, > 100 µM (inactive); in the assay on SNB-19, > 100 µM (inactive); in the assay with 786-0, 98.6 µM (inactive); in the assay on NCI-H226 it was > 100 µM (inactive); in the assay on NCI-H460, > 100 µM (inactive).

For orientation: GI50 means the concentration at which growth is held to half of that of the control.
